Assay results from US11903925B2, “Compositions for preventing and treating pulmonary injury due to ionizing radiation or cytotoxic drugs” (RepoCeuticals A/S, priority 2015, dated 2024).

Columns and labels:
[1] = system: lung; details: use of cytotoxic chemotherapeutic agents for cancer; cited from earlier work
[2] = Stability (suitability for use in a pharmaceutical composition); details: hence unsuitable for use in a pharmaceutical composition
[3] = Solubility of melatonin in water / aqueous solution; assay type: physicochemical; details: straightforward attempts at dissolving melatonin in water
Experimental: The pharmaceutical composition of the present invention may be in the form of a powder, solution, emulsion, suspension, or micellar, microsphere, microcapsular, nanoparticulate or liposomal preparation. Melatonin and most of its analogues, derivatives and metabolites are only sparingly soluble in water, straightforward attempts at dissolving melatonin in water yielding a maximum melatonin concentration of only 0.1 mg/mL. Higher concentrations of melatonin are needed if aqueous preparations of melatonin are to be administered in a convenient manner, e.g. by the inhalation of an aerosol of the preparation, to the airways epithelium at the concentrations estimated to be necessary to exert a protective action against free radical damage. A method of achieving this is outlined below.
A further formulation is to supply the composition as a dry powder as described above in a capped vial, to be reconstituted as a solution for nebulization by adding a given volume of sterile water from a second vial, to be used within one hour. The water for dissolving the formulation may contain the empirically determined amount of salts and buffering ions to produce a solution of the composition that has a near-physiological pH and osmolarity with reference to plasma to avoid the provocation of cough and bronchoconstriction on inhalation. […]

Bleomycin
overall rate of pulmonary damage [1]: over 40%

COc1ccc(N)c(C(=O)CCNC(C)=O)c1 [N^1-acetyl-5-methoxykynuramine]
stability [2]: unstable

COc1ccc2[nH]cc(CCNC(C)=O)c2c1 [melatonin, N-acetyl-5-methoxytryptamine]
maximum melatonin concentration in water [3]: 0.1 mg/mL
